Laboratory results from PubChem BioAssay AID1745844 (Carcinogenic Potency Database (CPDB), 2022).
Values joined by “and” are separate entries in the source; they are usually repeats but may differ in a detail not shown here. Equal values may be shown once. Active and inactive are the calls of the source. How the calls were made is not given here.

Test system: rodent lifetime carcinogenesis bioassay, tumor incidence TD50
Test: chronic cancer bioassays in animals – CPDB, compiled studies (AID 1745844)

Compound CC(C)CCC[C@@H](C)[C@H]1CC[C@H]2[C@@H]3CC=C4C[C@@H](OC(=O)Cc5ccc(N(CCCl)CCCl)cc5)CC[C@]4(C)[C@H]3CC[C@]12C has a TD50 (mouse, strain B6C3F1, females, by gavage, site: all sites + lung + myocardium, lesion: leukemia + lymphoma + alveolar/bronchiolar adenoma + alveolar/bronchiolar carcinoma + sarcoma, NOS, dosed 70 weeks, study length 83 weeks) of 0.211 mg/kg/day, a TD50 (mouse, strain B6C3F1, females, by gavage, site: all sites, lesion: hemangiosarcoma, dosed 70 weeks, study length 83 weeks) of 1.52 mg/kg/day and a TD50 (mouse, strain B6C3F1, females, by gavage, site: all sites, lesion: leukemia + lymphoma, dosed 70 weeks, study length 82 weeks) of 2.07 mg/kg/day. It also gave a TD50 (mouse, strain B6C3F1, females, by gavage, site: all sites, lesion: leukemia + lymphoma, dosed 70 weeks, study length 83 weeks) of 0.652 mg/kg/day, a TD50 (mouse, strain B6C3F1, females, by gavage, site: any site (literature study), lesion: several types, types named in the paper, dosed 70 weeks, study length 83 weeks) of 0.183 mg/kg/day and a TD50 (mouse, strain B6C3F1, females, by gavage, site: lung, lesion: alveolar/bronchiolar adenoma + alveolar/bronchiolar carcinoma, dosed 70 weeks, study length 83 weeks) of 0.416 mg/kg/day. It also gave a TD50 (mouse, strain B6C3F1, females, by gavage, site: myocardium, lesion: sarcoma, NOS, dosed 70 weeks, study length 83 weeks) of 0.951 mg/kg/day, a TD50 (mouse, strain B6C3F1, females, by gavage, site: ovary, lesion: tubular adenoma, dosed 70 weeks, study length 83 weeks) of 0.912 mg/kg/day and a TD50 (mouse, strain B6C3F1, males, by gavage, site: all sites + lung + myocardium, lesion: leukemia + lymphoma + alveolar/bronchiolar adenoma + alveolar/bronchiolar carcinoma + sarcoma, NOS, dosed 64 weeks, study length 81 weeks) of 0.757 mg/kg/day. For the same compound, the TD50 (mouse, strain B6C3F1, males, by gavage, site: all sites, lesion: hemangiosarcoma, dosed 64 weeks, study length 81 weeks) was 6.15 mg/kg/day, the TD50 (mouse, strain B6C3F1, males, by gavage, site: all sites, lesion: leukemia + lymphoma, dosed 64 weeks, study length 81 weeks) was 2.13 mg/kg/day and 1.89 mg/kg/day and the TD50 (mouse, strain B6C3F1, males, by gavage, site: any site (literature study), lesion: several types, types named in the paper, dosed 64 weeks, study length 81 weeks) was 0.728 mg/kg/day. For the same compound, the TD50 (mouse, strain B6C3F1, males, by gavage, site: liver, lesion: hepatocellular adenoma + hepatocellular carcinoma + neoplastic nodule, dosed 64 weeks, study length 81 weeks) was 32.9 mg/kg/day, the TD50 (mouse, strain B6C3F1, males, by gavage, site: lung, lesion: alveolar/bronchiolar adenoma + alveolar/bronchiolar carcinoma, dosed 64 weeks, study length 81 weeks) was 1.19 mg/kg/day and the TD50 (mouse, strain B6C3F1, males, by gavage, site: lung, lesion: alveolar/bronchiolar carcinoma, dosed 64 weeks, study length 81 weeks) was 2.05 mg/kg/day. The TD50 (mouse, strain B6C3F1, males, by gavage, site: myocardium, lesion: sarcoma, NOS, dosed 64 weeks, study length 81 weeks) was 3.87 mg/kg/day and 6.28 mg/kg/day, the TD50 (rat, strain Sprague-Dawley, females, by gavage, site: any site (literature study), lesion: several types, types named in the paper, dosed 52 weeks, study length 85 weeks) was 0.271 mg/kg/day and the TD50 (rat, strain Sprague-Dawley, females, by gavage, site: mammary gland, lesion: adenocarcinoma, NOS, dosed 52 weeks, study length 85 weeks) was 0.523 mg/kg/day. For the same compound, the TD50 (rat, strain Sprague-Dawley, males, by gavage, site: all sites, lesion: leukemia + lymphoma, dosed 52 weeks, study length 84 weeks) was 2.73 mg/kg/day (inactive) and the TD50 (rat, strain Sprague-Dawley, males, by gavage, site: any site (literature study), lesion: several types, types named in the paper, dosed 52 weeks, study length 84 weeks) was 0.481 mg/kg/day (inactive).
With C[C@H](CCC(=O)O)[C@H]1CC[C@H]2[C@@H]3CC[C@@H]4C[C@H](O)CC[C@]4(C)[C@H]3CC[C@]12C the TD50 (mouse, strain B6C3F1, females, by gavage, site: any site (literature study), lesion: several types, types named in the paper, dosed 103 weeks, study length 105 weeks) was 960 mg/kg/day (inactive), the TD50 (mouse, strain B6C3F1, females, by gavage, site: liver, lesion: hepatocellular adenoma + hepatocellular carcinoma + neoplastic nodule, dosed 103 weeks, study length 105 weeks) was 1140 mg/kg/day and the TD50 (mouse, strain B6C3F1, females, by gavage, site: lung, lesion: alveolar/bronchiolar adenoma + alveolar/bronchiolar carcinoma, dosed 103 weeks, study length 105 weeks) was 1030 mg/kg/day. For the same compound, the carcinogen call (mouse, strain B6C3F1, males, by gavage, site: any site (literature study), lesion: several types, types named in the paper, dosed 103 weeks, study length 105 weeks) was “negative (inactive)”, the TD50 (mouse, strain B6C3F1, males, by gavage, site: lung, lesion: alveolar/bronchiolar adenoma + alveolar/bronchiolar carcinoma, dosed 103 weeks, study length 105 weeks) was 834 mg/kg/day and the TD50 (rat, strain Fischer 344, females, by gavage, site: any site (literature study), lesion: several types, types named in the paper, dosed 103 weeks, study length 104 weeks) was 686 mg/kg/day (inactive). For the same compound, the TD50 (rat, strain Fischer 344, females, by gavage, site: liver, lesion: hepatocellular adenoma + hepatocellular carcinoma + neoplastic nodule, dosed 103 weeks, study length 104 weeks) was 1890 mg/kg/day, the TD50 (rat, strain Fischer 344, males, by gavage, site: any site (literature study), lesion: several types, types named in the paper, dosed 103 weeks, study length 104 weeks) was 501 mg/kg/day (inactive) and the TD50 (rat, strain Fischer 344, males, by gavage, site: liver, lesion: hepatocellular adenoma + hepatocellular carcinoma + neoplastic nodule, dosed 103 weeks, study length 104 weeks) was 2250 mg/kg/day.
In the case of O=S(=O)(c1ccc(Cl)cc1)c1cc(Cl)c(Cl)cc1Cl, the TD50 (mouse, strain B6AKF1, females, oral dosing, site: any site (literature study), lesion: several types, types named in the paper, dosed 76 weeks, study length 76 weeks) is reported as 233 mg/kg/day (inactive), the TD50 (mouse, strain B6AKF1, females, oral dosing, site: liver, lesion: hepatoma, dosed 76 weeks, study length 76 weeks) is reported as 233 mg/kg/day (inactive) and the carcinogen call (mouse, strain B6AKF1, females, oral dosing, site: lung, lesion: adenoma, dosed 76 weeks, study length 76 weeks) is reported as “negative (inactive)”. For the same compound, the carcinogen call (mouse, strain B6AKF1, males, oral dosing, site: any site (literature study), lesion: several types, types named in the paper, dosed 76 weeks, study length 76 weeks) was “negative (inactive)”, the carcinogen call (mouse, strain B6AKF1, males, oral dosing, site: liver, lesion: hepatoma, dosed 76 weeks, study length 76 weeks) was “negative (inactive)” and the carcinogen call (mouse, strain B6AKF1, males, oral dosing, site: lung, lesion: adenoma, dosed 76 weeks, study length 76 weeks) was “negative (inactive)”. For the same compound, the TD50 (mouse, strain B6C3F1, females, oral dosing, site: any site (literature study), lesion: several types, types named in the paper, dosed 76 weeks, study length 76 weeks) was 220 mg/kg/day (inactive), the carcinogen call (mouse, strain B6C3F1, females, oral dosing, site: liver, lesion: hepatoma, dosed 76 weeks, study length 76 weeks) was “negative (inactive)” and the carcinogen call (mouse, strain B6C3F1, females, oral dosing, site: lung, lesion: several types, types named in the paper, dosed 76 weeks, study length 76 weeks) was “negative (inactive)”. For the same compound, the TD50 (mouse, strain B6C3F1, males, oral dosing, site: any site (literature study), lesion: several types, types named in the paper, dosed 76 weeks, study length 76 weeks) was 35.6 mg/kg/day (inactive), the TD50 (mouse, strain B6C3F1, males, oral dosing, site: liver, lesion: hepatoma, dosed 76 weeks, study length 76 weeks) was 46.2 mg/kg/day (inactive) and the TD50 (mouse, strain B6C3F1, males, oral dosing, site: lung, lesion: adenoma, dosed 76 weeks, study length 76 weeks) was 205 mg/kg/day (inactive).
For CC(C)N=[N+]([O-])C(C)C, the TD50 (rat, strain Sprague-Dawley, males, by gavage, site: liver, lesion: hepatocellular carcinoma, dosed 26 weeks, study length 77 weeks) was 0.00736 mg/kg/day and the TD50 (rat, strain Sprague-Dawley, males, by gavage, site: skin, lesion: keratoacanthoma, dosed 26 weeks, study length 77 weeks) was 0.00268 mg/kg/day.
